According to patent publication US20250000826A1, “APPLICATION OF BENZANILIDE COMPOUND IN TUMOR TREATMENT” (NANJING SHIJIANG MEDICINE TECHNOLOGY CO., LTD, priority 2021, published 2025):

Tests used:
Assay type in all cases: cell-based
[1] = tested on: NCI-H82 (human small cell lung cancer cell); test: CellTiter-Glo cell viability, NCI-H82; details: NCI-H82, sensitive group, 3-4 days of culture, n=3, read-out: IC50 (μM), inhibitory effect on cell line
Experimental: (§1) Cell viability was detected using the Promega CellTiter-Glo kit, cell viability was determined by directly measuring intracellular ATP content. In the experiment, the IC50 value of niclosamide on various tumor cell lines was determined. Each tumor cell was cultured separately in relevant medium (+p/s), and was incubated for 3 h, then the gradient diluted niclosamide was added. After 3-4 days of culture, the relevant IC50 (50% inhibiting concentration) was measured (n=3). The name, source and culture conditions of each tumor cell line were as follows: Cell line NCI-H82 (ATCC, No. HTB-175) was cultured in 10% fetal bovine serum-containing RPMI1640 medium (+P/S).

[2] = tested on: MDA-MB-453 (breast cancer cell); test: CellTiter-Glo cell viability, MDA-MB-453; details: Homo sapiens; MDA-MB-453, sensitive group, 3-4 days of culture, n=3; read-out: IC50 (μM), inhibitory effect on cell line
Experimental: as §1, with “(+P/S). Cell line MDA-MB-453 (ATCC, No. HTB-131) was cultured in 10% fetal bovine serum-containing Leibovitz's L-15 medium (+P/S).” for “(+P/S).”

[3] = tested on: SW48 (human colon adenocarcinoma cell); test: CellTiter-Glo cell viability, SW48; details: SW48, sensitive group, 3-4 days of culture, n=3, read-out: IC50 (μM), inhibitory effect on cell line
Experimental: as §1, with “(+P/S). Cell line SW48 (ATCC, No. CCL-231) was cultured in 10% fetal bovine serum-containing Leibovitz's L-15 medium (+P/S).” for “(+P/S).”

[4] = tested on: SF-126 (human glioblastoma multiforme cell); test: CellTiter-Glo cell viability, SF-126; details: SF-126, insensitive group, 3-4 days of culture, n=3, read-out: IC50 (μM), inhibitory effect on cell line
Experimental: as §1, with “(+P/S). Cell line SF126 (JCRB. No. 1F050286) was cultured in 10% fetal bovine serum-containing EMEM medium (+P/S).” for “(+P/S).”

[5] = tested on: 786-0 (clear cell renal cell adenocarcinoma cell); test: CellTiter-Glo cell viability, 786-0; details: Homo sapiens; 786-0, insensitive group, 3-4 days of culture, n=3; read-out: IC50 (μM), inhibitory effect on cell line
Experimental: as §1, with “(+P/S). Cell line 786-0 (ATCC, No. CRL-1932) was cultured in 10% fetal bovine serum-containing RPMI1640 medium (+P/S).” for “(+P/S).”

[6] = tested on: WSU-DLCL2 (human diffuse large B-cell lymphoma); test: CellTiter-Glo cell viability, WSU-DLCL2; details: WSUDLCL2, WSU-DLCL2, sensitive group, 3-4 days of culture, n=3, read-out: IC50 (μM), inhibitory effect on cell line
Experimental: as §1, with “(+P/S). Cell line WSU-DLCL2 (DSMZ, No. ACC-575) was cultured in 10% fetal bovine serum-containing RPMI1640 medium (+P/S).” for “(+P/S).”

[7] = tested on: G-401 (human renal carcinoma Wilms cell); test: CellTiter-Glo cell viability, G-401; details: G-401, sensitive group, 3-4 days of culture, n=3, read-out: IC50 (μM), inhibitory effect on cell line
Experimental: as §1, with “(+P/S). Cell line G401 (ATCC, No. CRL-1441) was cultured in 10% fetal bovine serum-containing McCoy's 5a medium (+P/S).” for “(+P/S).”

[8] = tested on: NCI-H82 (ov-NNMT) cell; test: CellTiter-Glo cell viability, NNMT protein-overexpressing NCI-H82 cell; details: Homo sapiens; NCI-H82 with NNMT gene inserted by viral vector, n=3
Experimental: (§2) The NNMT protein-overexpressing NCI-H82 cell (NCI-H82 (ov-NNMT)) was obtained by inserting the NNMT gene into NCI-H82 cell using a viral vector. The control NCI-H82 cell (NCI-H82 (Con)) was obtained by transfecting NCI-H82 cell with empty virus vector without carrying NNMT gene. The IC50 value of niclosamide on control NCI-H82 cell (NCI-H82 (Con)) and NNMT protein-overexpressing NCI-H82 cell (NCI-H82 (ov-NNMT)) was determined using Promega CellTiter-Glo kit which detected cell viability by directly measuring intracellular ATP content (n=3), the experiment result was shown in Table 4 below: […]

[9] = tested on: NCI-H82 (Con) cell; test: CellTiter-Glo cell viability, control NCI-H82 cell; details: Homo sapiens; NCI-H82 transfected with empty virus vector, n=3
Experimental: as §2

[10] = tested on: GB-1 (human glioblastoma cell); test: CellTiter-Glo cell viability, GB-1; details: GB-1, insensitive group, 3-4 days of culture, n=3, read-out: IC50 (μM), inhibitory effect on cell line
Experimental: as §1, with “(+P/S). Cell line GB-1 (JCRB, No. IF050489) was cultured in 10% fetal bovine serum-containing […] DMEM medium (+P/S).” for “(+P/S).”

[11] = tested on: CFPAC-1 (human pancreatic cancer cell); test: CellTiter-Glo cell viability, CFPAC-1; details: CFPAC-1, insensitive group, 3-4 days of culture, n=3, read-out: IC50 (μM), inhibitory effect on cell line
Experimental: as §1, with “(+P/S). Cell line CFPAC-1 (ATCC, No. CRL-1918) was cultured in 10% fetal bovine serum-containing IMDM medium (+P/S).” for “(+P/S).”

IC50 [1]: 0.13 µM
IC50 [2]: 0.47 µM
IC50 [3]: 0.72 µM
IC50 [4]: 16.2 µM
IC50 [5]: > 50 µM
IC50 [6]: 0.21 µM
IC50 [7]: 0.64 µM
IC50 [8]: 420 nM
IC50 [9]: 120 nM
IC50 [10]: 6.68 µM
IC50 [11]: > 50 µM
Compound: O=C(Nc1ccc([N+](=O)[O-])cc1Cl)c1cc(Cl)ccc1O [Niclosamide, niclosamide]
